Laboratory results: patent publication US20220267390A1, “MPS MODIFIED PEPTIDES AND USE THEREOF” (The Regents of the University of California, priority 2019, published 2022)
Where no end group is shown, it is not given here.

What was measured:
[1] = Kinetic assay: biolayer interferometry binding to biotin-labeled PIP2; details: 24° C., read-out: dissociation constant
Description: (§1) FIGS. 10A-10C: (FIG. 10A) The PIP2-binding motif (SEQ ID NO: 12) on the ? hosphorylation ? ite ? omain (PSD) of MARCKS. FIG. 10A discloses the MH domain as SEQ ID NO: 86). (FIG. 10B) Biolayer interferometry analysis of the binding of the MPS peptide to biotin-labeled PIP2. (FIG. 10C) PIP3 levels in IPF fibroblast cells with PBS or MPS treatment. * p<0.05 versus PBS (n=3).
Real-time binding of the peptide mimicking the phosphorylation site domain of MARCKS (MPS peptide, amino acids 151 to 175 from the wild-type MARCKS protein) to biotin-labeled PIP2 was evaluated using biolayer interferometry (BLI) on an Octet RED96 system (ForteBio) following the manufacturer's instructions. Briefly, the ligand, PIP2 labeled with biotin at the sn-1 position (1000 nM in ddH2O), was immobilized on Super Streptavidin (SSA) biosensors for 10 minutes. A binding assay was performed with the MPS analyte at various concentrations from 0 to 1000 nM in ddH2O. Association and dissociation were monitored for 5 minutes. Assays were performed at 24° C. Data were analyzed using Octet Data Analysis Software 7.0 (ForteBio).

[2] = test system: oncospheres derived from H292 cells; assay: Sphere-forming assay, smoke-enriched oncospheres derived from H292 cells; type: cell-based
Description: FIG. 18A-18C: (FIG. 18A) Sphere-forming assays for evaluating the inhibitory effect of the MPS peptide on smoke-mediated stemness. (FIG. 18B) Quantification of the number and size of oncospheres. (FIG. 18C) RT-qPCR analyses of mRNA expression in the above oncospheres.
Targeting the MARCKS PSD is associated with inhibition of stem-like cell properties. In light of the importance of the PSD in the functionality of MARCKS protein, Applicant designed a 25-mer MPS peptide to mimic the MARCKS phosphorylation site domain (PSD). […] Applicant's initial studies have shown that elevation of phospho-MARCKS in lung cancer spheres acted in parallel with increased stemness markers, such as CD133, Oct3/4, SOX2 and Nanog (data not included). The oncospheres were derived from high MARCKS-expressing lung cancer cell lines (H1975 and CL1-5) and primary lung cancer cells (LG704 and LC3: pleural effusion cells isolated from patients with advanced stage) in non-adherent serum-free culture conditions as described previously^30-32. Flow cytometry confirmed that ˜80% of LG704 oncosphere cells are CD133-positive, a major lung CSCs marker. […] The sphere-forming ability was assessed by counting the number and size of tumor spheres (oncospheres) under a microscope. […]

[3] = test system: lung fibroblasts isolated from bleomycin-treated mice; assay: MTT cell viability of lung fibroblasts from saline- or bleomycin-treated mice; type: cell-based; details: fibroblasts from bleomycin-treated mice compared to those from saline-treated mice
Method: FIGS. 7A-7B: (FIG. 7A) Western blots analysis of phospho-MARCKS, phospho-AKT and α-SMA expression in lung fibroblast cells isolated from saline- or bleomycin-treated mice after 48 hours of treatment with control or MPS peptides (100 μM). (FIG. 7B) Effect of MPS peptide on cell viability of lung fibroblasts isolated from saline- (mFb-Saline) or bleomycin-treated (mFb-Bleomycin) mice (n=4; *, p<0.05).
MPS peptide potentially serves as an antifibrotic agent in bleomycin-induced pulmonary fibrosis. Bleomycin remains the standard agent for induction of experimental pulmonary fibrosis in animals^23. Thus, 8-week-old female C57BL/6J mice received saline or bleomycin intratracheally (33 μg in […] of saline) as previously described^23. Lung specimens from bleomycin- or saline-treated mice were collected and subjected to immunofluorescence staining. […] Next, lung fibroblast cells isolated from saline- or bleomycin-treated mice (two mice fibroblast cell lines were gifts from Dr. Sem H. Phan, University of Michigan School of Medicine, MI) were incubated with either 100 μM control or MPS peptide for 48 hours. […] The feasibility of the MPS peptide as an antifibrotic agent in a bleomycin-induced pulmonary fibrosis was tested. […] Saline- and bleomycin-exposed mice then were treated with either PBS or MPS peptide (28 mg/kg) intraperitoneally every other day. […]

PIP3 = assay: PI(3,4,5)P3 quantitation (PIP3 Mass ELISA) in IPF fibroblasts; type: cell-based, human; details: MPS-treated IPF fibroblasts vs PBS
Description: as §1
Cells were harvested and precipitated by trichloroacetic acid. PIP3 lipids were extracted twice from the trichloroacetic acid precipitated fraction by methanol: chloroform (2:1). After acidification, organic-phase lipids were used for PIP3 quantitation, based on the protocol for the PIP3 Mass ELISA kit (Echelon Biosciences, Salt Lake, Utah). Briefly, the lipid extract from cultured cells was mixed with the PIP3-specific detector protein, which was then incubated in a PIP3-coated microplate for competitive binding. After several washes, the microplate was then incubated with a HRP-linked secondary detector and tetramethylbenzidine substrate for color development. To stop further color development, 2M H2SO4 solution was then added. Microplates were read at an absorbance wavelength of 450 nm. A series of different dilutions of PIP3 standards were used for establishing a standard curve for each reaction. Cellular PIP3 amounts could be estimated by comparing the absorbance in the wells with the values in the standard curve. […]

Kd [1]: 17.6 nM
Sequence: KKKKKRFSFKKSFKLSGFSFKKNKK [MPS peptide]
number and size of oncospheres [2]: inhibitory effects
expression of stemness genes ([2]; RT-qPCR): inhibitory effects
Cell viability [3]: very effective in decreasing cell viability
PIP3 pools in whole cell lysates (PIP3): decrease
